Results: patent US11674162B2, “Selective advantage in fermentation” (Ginkgo Bioworks, Inc., priority 2014, dated 2023)

What was measured:
NS101 [1] = assay: Growth in rich YPD medium with and without cyanamide (FIG. 24); assay type: cell-based, Saccharomyces cerevisiae; settings: rich YPD medium with 10 mM cyanamide, 30° C.
Procedure: The optical density of NS100 and NS101 grown in rich YPD medium with 100 μg/mL hygromycin and with and without 10 mM cyanamide was assessed as follows. NS100 and NS101 were grown overnight in YNB medium, and inoculated at 3.33% v/v. […] Thus, cyanamide, in addition to functioning as a sole source of nitrogen, may also act as a deterrent for microbial growth. Data are averages of 3 replicate wells in a 96 well plate; 150 μL per well. 30° C., YPD medium or YPD medium with 10 mM cyanamide. Inoculation was with 5 μL of culture pregrown for 24 hours in the YNB medium with urea as nitrogen source (FIG. 24).

NS101 [2] = assay: Growth progress in defined medium, 96 well plate (FIG. 21); assay type: cell-based, Saccharomyces cerevisiae; settings: strain NS101, 10 mM, YNB medium, 30° C.
Procedure: (§1) The optical density of NS100 and NS101 grown in defined medium with different nitrogen sources was assessed as follows. NS100 and NS101 were grown overnight in YPD medium, washed once in an equal volume of sterile water, and inoculated at 3.33% v/v. […] Data are averages of 3 replicate wells in a 96 well plate; 150 μL per well. 30° C., YNB medium contained 20 g/L glucose, 1.7 g/L YNB base medium without amino acids or ammonium sulfate, 5 g/L sodium sulfate, 100 μg/mL hygromycin, and either 10 mM urea, 10 mM cyanamide, or no nitrogen source. Inoculation was with 5 μL of culture pregrown for 24 hours in the same medium with urea as nitrogen source (FIG. 21).

NS100 [3] = assay: as above; assay type: cell-based, Saccharomyces cerevisiae; settings: strain NS100 (control), 10 mM, YNB medium, 30° C.
Procedure: as §1

NS112 = assay: Optical density after 72 hours in defined YNB medium with different nitrogen sources; assay type: cell-based, Saccharomyces cerevisiae; settings: strain NS112 (control), 10 mM nitrogen source
Procedure: (§2) Additionally, strains NS100, NS101, NS111, and NS112 were grown in defined YNB medium with 10 mM urea and 100 μg/mL hygromycin to stationary phase aerobically at 30° C. 1/1000 v/v inoculations were then made into the same defined medium with either 10 mM urea, 10 mM cyanamide, or no additional nitrogen and grown under the same conditions.

NS101 [4] = assay: as above; assay type: cell-based, Saccharomyces cerevisiae; settings: strain NS101 (cah), 10 mM nitrogen source
Procedure: as §2

NS111 = assay: as above; assay type: cell-based, Saccharomyces cerevisiae; settings: strain NS111 (cah), 10 mM nitrogen source
Procedure: as §2

NS100 [5] = assay: as above; assay type: cell-based, Saccharomyces cerevisiae; settings: strain NS100 (control)
Procedure: as §2, with “Strains NS98, NS99,” for “Additionally, strains NS100, NS101, NS111,”, “NS100” for “NS112”, “biuret,” for “cyanamide,”
as §2

NS99 = assay: as above; assay type: cell-based, Saccharomyces cerevisiae; settings: strain NS99, 10 mM nitrogen source, aerobic 30° C.
Procedure: (§3) Strains NS98 and NS99 are industrial S. cereviaie strains carrying plasmids pNC96 (hyg^R, and a codon optimized trzE from Rhodococcus sp. MEL and pNC97 (hyg^R, and a codon optimized trzE from Rhizobium leguminosarum), respectively. Strain NS100 is the same industral S. cerevisiae stain carrying plasmid pNC67 (hyg^R, nat^R) which serves as a control strain.
as §2, with “Strains NS98, NS99,” for “Additionally, strains NS100, NS101, NS111,”, “NS100” for “NS112”, “biuret,” for “cyanamide,”

NS98 = assay: as above; assay type: cell-based, Saccharomyces cerevisiae; settings: strain NS98, 10 mM nitrogen source, aerobic 30° C.
Procedure: as §3
as §2, with “Strains NS98, NS99,” for “Additionally, strains NS100, NS101, NS111,”, “NS100” for “NS112”, “biuret,” for “cyanamide,”

NS91 [6] = assay: Growth progress in MOPS defined medium with different nitrogen sources; assay type: cell-based, Escherichia coli; settings: for growth with the compound as nitrogen source: control strain NS91, MOPS medium; for ammonium chloride concentration giving similar growth: strain NS91 (control), 0.25 mM as sole nitrogen source
Procedure: (§4) Vector and strain construction was as described in Examples 1-4. All vectors contain the ampicillin resistance gene, and 100 ug/mL ampicillin was added to all culture medium. These strains were grown in MOPS defined medium with different nitrogen sources.
(§5) An average of all four strains grown on different ammonium chloride concentrations from 0 to 1.5 mM is also shown as a standard curve for growth with limiting nitrogen. NS91 grown on melamine is similar to the 0 mM ammonium chloride control.
(§6) An average of all four strains grown on different ammonium chloride concentrations from 0 to 1.5 mM is also shown as a standard curve for growth with limiting nitrogen. NS91 grown on ammeline is similar to the 0 mM ammonium chloride control.
(§7) Cultures were grown aerobically at 37° C. with 100 mg/L ampicillin. Pre-cultures were grown in LB media with 100 mg/L ampicillin, washed once with an equal volume of MOPS media containing no nitrogen, and inoculated at 5% v/v of the final fermentation volume. The content of the MOPS medium is outlined in Table 9.

NS90 = assay: as above; assay type: cell-based, Escherichia coli; settings: strain NS90, 1 mM nitrogen source
Procedure: as §4, §7

NS103 = assay: as above; assay type: cell-based, Escherichia coli; settings: strain NS103, 0.25 mM as sole nitrogen source
Procedure: as §4, §5, §6, §7

NS91 [7] = assay: Maximum growth rate on ammeline as sole nitrogen source; assay type: cell-based, Escherichia coli; settings: strain NS91 (control), 0.5 mM ammeline as sole nitrogen source
Procedure: (§8) Strains can also be selected for improved utilization of melamine derived nitrogen sources, in one example NS88 was passaged for 11 serial transfers in MOPS defined medium with 0.5 mM ammeline as sole nitrogen source. After the final passage, single colonies were isolated, and one was designated as NS93. NS93 and NS91 were grown overnight in medium with 0.5 mM ammonium chloride as sole nitrogen source, and then inoculated in medium with 0.5 mM ammeline as sole nitrogen source.

NS93 = assay: as above; assay type: cell-based, Escherichia coli; settings: strain NS93, 0.5 mM ammeline as sole nitrogen source
Procedure: as §8

[8] = tested on: E. coli strains containing pNC121; assay: Growth on melamine as sole nitrogen source (FIG. 18); assay type: cell-based, Escherichia coli; settings: 0.5 mM; E. coli K12, MG1655, B and Crooks strains containing pNC121
Procedure: FIGS. 16, 17, and 18 show E. coli strains derived from E. coli K12, E. coli MG1655, E. coli B, and E. coli Crooks (C) containing either pNC121 with the complete melamine utilization pathway, or pNC53, a control vector. See Tables 7 and 8 for strain details. All the strains containing pNC121 are able to grow on 0.5 mM melamine as sole nitrogen source (FIG. 18).
as §7

NS88 = assay: Growth progress in MOPS defined medium with different nitrogen sources; assay type: cell-based, Escherichia coli; settings: strain NS88, 1 mM nitrogen source
Procedure: as §4, §7

[9] = Table 11, 10 mM nitrogen source
[10] = Table 10, 10 mM nitrogen source

| SMILES | Optical Density 600 nm (NS112) | Optical Density 600 nm (NS101 [4]) | Optical Density 600 nm (NS111) | Optical Density 600 nm (NS100 [5]; [9]) | Optical Density 600 nm (NS99) | Optical Density 600 nm (NS98) | growth with the compound as nitrogen source (NS91 [6]) | Optical Density 600 nm (NS100 [5]; [10]) | ammonium chloride concentration giving similar growth (NS91 [6]) | also measured |
| --- | --- | --- | --- | --- | --- | --- | --- | --- | --- | --- |
| N#CN [cyanamide, Cyanamide] | 0.15 | 4.66 | 3.09 | 0.05 | – | – | – | – | – | lag phase of NS101 relative to NS100 (NS101 [1]): shorter lag phase; optical density reached (NS101 [2]): comparable to that with urea; optical density reached (NS100 [3]): comparable to that with no nitrogen present in the medium |
| NC(=O)NC(N)=O [biuret, Biuret] | – | – | – | – | 2.18 | 2.55 | does not grow | 1.21 | – | ammonium chloride concentration giving comparable optical density (NS90): ~3 mM |
| Nc1nc(N)[nH]c(=O)n1 [ammeline, Ammeline] | – | – | – | – | – | – | – | – | ~0 mM | ammonium chloride concentration giving similar growth (NS103): ~0.5 mM; maximum growth rate (NS91 [7]): 0.024 h⁻¹; maximum growth rate (NS93): 0.087 h⁻¹ |
| Nc1nc(N)nc(N)n1 [melamine, Melamine] | – | – | – | – | – | – | does not grow | – | ~0 mM | growth on the compound as sole nitrogen source [8]: able to grow; ammonium chloride concentration giving comparable optical density (NS88): ~2 mM |
| NC(N)=O [urea] | 3.05 | 3.60 | 3.68 | 3.12 | 5.26 | 5.09 | – | 5.22 | – | – |
